# According to patent US8188059B2, “Compounds and methods for modulating expression of GCGR” (Isis Pharmaceuticals, Inc., priority 2006, dated 2012):
# Strand notation (5' to 3'): a small letter for the sugar, then the base; units joined by * are phosphorothioate-linked, units joined directly phosphodiester-linked; [ ] holds rarer units or linkages, { } end groups; capitals alone tell only the bases. [PALM-N] = nucleoside bearing a 2'-(butylacetamido)-palmitamide (C16 palmitic acid) substituent (N: the base); e = 2'-O-(2-methoxyethyl) (MOE); l = locked nucleic acid (LNA); [5mC] = 5-methylcytosine; d = 2'-deoxy (DNA)
# Tests used:
# [1] = test system: ApoB mRNA; test: ApoB mRNA in liver of Balb/c mice, palmitic acid conjugates, single i.p. dose, with ED50 (Example 30, Table 95); assay type: in vivo, mouse; conditions: for % Inhib: Balb/c mice, about 48 hours after dose, relative to saline-treated controls
# Experimental: 0.4, and 0.16 umol/kg. Each dose group consisted of four animals. A 5-10-5 MOE gapmer was used for a control treatment. Mice were sacrificed approximately 48 hours following the final dose. Liver tissue was collected for RNA isolation, and blood was collected for serum chemistry analyses. ApoB mRNA levels were measured by real-time PCR as described herein. ApoB mRNA levels were normalized to RNA levels as determined by RIBOGREEN, and are presented in Table 95 as percent inhibition relative to ApoB mRNA levels in saline-treated control animals.
# At the 2.5 umol/kg dose, ApoB inhibition by the short antisense compounds was greater than observed with a 5-10-5 MOE gapmer at an equivalent dose. […] Triglycerides were reduced at the 2.5 and […] doses of ISIS 387462 and ISIS 391872.
# [2] = test system: mouse SGLT2 mRNA; test: Mouse SGLT2 mRNA levels in kidney, MOE versus Methyleneoxy BNA gapmers, Balb/c mice (Example 15, Table 69); assay type: in vivo
# Experimental: The effect of ISIS 379692 1-10-1 MOE gapmer and ISIS 388625 2-8-2 MOE gapmer are compared with the effect of ISIS 392170 1-10-1 Methyleneoxy BNA Gapmer and ISIS 392173 2-8-2 Methyleneoxy BNA Gapmer (see Table 69) on mouse SGLT2 mRNA levels in vivo. Data are taken from three experiments in which male 6-week old Balb/c mice were dosed twice per week for three weeks with 5, 25 and 125 nmol/kg of either the ISIS 379692 1-10-1 MOE gapmer or the ISIS 388625 2-8-2 MOE gapmer given by intraperitoneal injection. Mice were sacrificed 48 hours following last administration and evaluated for SGLT2 mRNA levels in kidney. Target levels were determined by RT, real-time PCR as described by other examples herein. PCR results were normalized to an internal ISIS control. The data are expressed as percent change (“+” indicates an increase, “−” indicates a decrease) relative to saline treated animals and are illustrated in Table 69.
# [3] = test system: PTEN mRNA; test: PTEN mRNA levels in liver, kidney and fat, Balb/c mice, single 8 μmol/kg i.p. (Example 6, Table 48); assay type: in vivo, mouse; conditions: 8 μmol/kg single i.p., 72 h, saline = 100
# Excerpt: (§1) Each dose group consisted of four animals. Shown in Table 46 are the sequences and motifs of the PTEN antisense compounds used in this study. Bolded residues indicate 2′-O-methoxyethyl moieties (2′-MOE) and italicized residues indicate Methyleneoxy BNA nucleotides. Each antisense compound comprises phosphorothioate linkages throughout. In addition, the cytosine residues in the gap of ISIS 384073 and in the wings of ISIS 392056, ISIS 392057, ISIS 392061 and ISIS 392063 are replaced with 5-methylcytosines. Antisense compounds target published PTEN nucleic acids, including Genbank Accession No. U92437.1 (SEQ ID NO: 13).
# (§2) Mice were sacrificed 72 hours following injection to determine serum transaminase levels (Table 47); liver and spleen weights (Table 47); and PTEN mRNA levels in liver, kidney and fat (Table 48), according to procedures described herein and well know to one of ordinary skill in the art.
# [4] = Transaminase levels, liver and spleen weights, body weight (Example 6, Table 47); assay type: in vivo, mouse; conditions: 8 μmol/kg single i.p.; 72 h; Balb/c mice
# Excerpt: as §1, §2
# [5] = Plasma glucose in ZDF rats, once a week for twelve weeks (Example 16, Table 71); assay type: in vivo, rat
# Experimental: (§3) ISIS 388625, 388626 and control oligo ISIS 388628 were analyzed for their effect on ZDF rat plasma glucose levels and HbA1c. The leptin receptor deficient Zucker diabetic fatty (ZDF) rat is a useful model for the investigation of type 2 diabetes. Diabetes develops spontaneously in these male rats at ages 8-10 weeks, and is associated with hyperphagia, polyuria, polydipsia, and impaired weight gain, symptoms which parallel the clinical symptoms of diabetes (Phillips M S, et al., 1996, Nat Genet. 13, 18-19). Six week old ZDF rats were injected intraperitoneally with short antisense compound at a dose of 400 nM/kg once a week for twelve weeks. Data are illustrated in Tables 71 and 72.
# [6] = HbA1c status in ZDF rats (Example 16, Table 72); assay type: in vivo, rat; conditions: for Percentage HbA1c on specific dates, Day 40 / Percentage HbA1c on specific dates, Day 55 / Percentage HbA1c on specific dates, Day 68: 400 nM/kg i.p. once a week for twelve weeks; for Percentage HbA1c on specific dates, Day 40: Day 40, p < 0.001; for Percentage HbA1c on specific dates, Day 55: Day 55, p < 0.001; for Percentage HbA1c on specific dates, Day 68: Day 68, p < 0.001
# Experimental: as §3
# [7] = test system: mouse SGLT2 mRNA; test: Mouse SGLT2 mRNA levels in kidney, additional 1-10-1 and 2-8-2 MOE gapmers, Balb/c mice (Example 15, Table 68); assay type: in vivo
# Experimental: 1-10-1 and 2-8-2 MOE gapmer short antisense compounds were designed to target different regions of the mouse SGLT2 RNA but have complementarity across species. […] All cytidine residues are 5-methylcytidines.
# The short antisense compounds were analyzed for their effect on mouse SGLT2 mRNA levels in vivo. Data was taken from three experiments in which male 6-week old Balb/c mice were dosed twice per week for three weeks with 0.5, 0.1, or 0.02 umol/kg of either a 1-10-1 or 2-8-2 MOE gapmer given by intraperitoneal injection. Mice were sacrificed 48 hours following last administration and evaluated for SGLT2 levels in kidney. Target levels were determined by RT, real-time PCR as described by other examples herein. PCR results were normalized to an internal ISIS control.
# [8] = 5 nmol/kg i.p. twice per week for three weeks
# [9] = 25 nmol/kg i.p. twice per week for three weeks
# [10] = 125 nmol/kg i.p. twice per week for three weeks
# [11] = Day 10, 400 nM/kg i.p. once a week for twelve weeks
# [12] = Day 40, 400 nM/kg i.p. once a week for twelve weeks
# [13] = Day 55, 400 nM/kg i.p. once a week for twelve weeks
# [14] = Day 66, 400 nM/kg i.p. once a week for twelve weeks
# [15] = compared to PBS and control treated animals
substance,measurement,setting,value
391872 (antisense [PALM-G]*lG*dT*dA*dC*dA*dT*dG*dG*dA*dA*dG*lT*l[5mC]) [compound 391872],% Inhib,[1]; single i.p. dose 0.16 umol/kg,18%
same,% Inhib,[1]; single i.p. dose 0.4 umol/kg,50%
same,% Inhib,[1]; single i.p. dose 1.0 umol/kg,92%
ISIS 391871: ApoB; GGTACATGGAAGTC 1-1-10-2 2′-(butylacetomido)-palmitamide/MOE/MOE Unmodified cytosines in gap (antisense [PALM-G]*eG*dT*dA*dC*dA*dT*dG*dG*dA*dA*dG*eT*e[5mC]),estimated ED50,[1]; single i.p. injection,13.1 mg/kg
ISIS 392173: SGLT2; 2-8-2 Methyleneoxy BNA Gapmer (antisense lT*lG*dT*dT*d[5mC]*d[5mC]*dA*dG*d[5mC]*d[5mC]*l[5mC]*lA),"SGLT2 mRNA, percent change relative to saline treated animals",[2]; [8],−44 percent change
same,"SGLT2 mRNA, percent change relative to saline treated animals",[2]; [9],−57 percent change
same,"SGLT2 mRNA, percent change relative to saline treated animals",[2]; [10],−75 percent change
392061 (antisense l[5mC]*lT*dA*dG*dC*dC*dT*dC*dT*dG*dG*dA*lT*lT) [compound 392061],% PTEN mRNA levels in Fat,[3],85%
same,% PTEN mRNA levels in Kidney,[3],61%
same,% PTEN mRNA levels in Liver,[3],24%
same,ALT,[4],42.0 IU/L
same,AST,[4],189 IU/L
same,Liver Weight,[4],123 % Saline
same,Spleen Weight,[4],111 % Saline
388625 (antisense eT*eG*dT*dT*d[5mC]*d[5mC]*dA*dG*d[5mC]*d[5mC]*e[5mC]*eA) [compound 388625],Plasma glucose levels,[5]; [11],435.5 mg/dL
same,Plasma glucose levels,[5]; [12],278.7 mg/dL
same,Plasma glucose levels,[5]; [13],213.8 mg/dL
same,Plasma glucose levels,[5]; [14],325.5 mg/dL
same,"Percentage HbA1c on specific dates, Day 40",[6],6.5%
same,"Percentage HbA1c on specific dates, Day 55",[6],5.8%
same,"Percentage HbA1c on specific dates, Day 68",[6],4.3%
391172 (antisense lC*lT*dA*dG*dC*dC*dT*dC*dT*dG*dG*dA*lT*lT*lT) [compound 391172],% PTEN mRNA levels in Fat,[3],101%
same,% PTEN mRNA levels in Kidney,[3],63%
same,% PTEN mRNA levels in Liver,[3],18%
same,ALT,[4],32.8 IU/L
same,AST,[4],48.5 IU/L
same,Liver Weight,[4],120 % Saline
same,Spleen Weight,[4],112 % Saline
"141923 (antisense CCTTCCCTGAAGGTTCCTCC; sugars from the 5' end e5 d10 e5, all phosphorothioate, methylation of C not given here) [compound 141923]",% PTEN mRNA levels in Fat,[3],118%
same,% PTEN mRNA levels in Kidney,[3],133%
same,% PTEN mRNA levels in Liver,[3],102%
same,ALT,[4],34.8 IU/L
same,AST,[4],89.5 IU/L
same,Liver Weight,[4],101 % Saline
same,Spleen Weight,[4],108 % Saline
ISIS 388626: SGLT2; GGCATGAGCTTC 2-8-2 MOE (antisense eG*eG*d[5mC]*dA*dT*dG*dA*dG*d[5mC]*dT*eT*e[5mC]),% change in SGLT2 expression relative to saline,[7]; 0.02 umol/kg i.p. twice per week for three weeks,−45%
same,% change in SGLT2 expression relative to saline,[7]; 0.1 umol/kg i.p. twice per week for three weeks,−60%
same,% change in SGLT2 expression relative to saline,[7]; 0.5 umol/kg i.p. twice per week for three weeks,−80%
same,Plasma glucose levels,[5]; [11],434.7 mg/dL
same,Plasma glucose levels,[5]; [12],300.5 mg/dL
same,Plasma glucose levels,[5]; [13],219.8 mg/dL
same,Plasma glucose levels,[5]; [14],379.8 mg/dL
same,Plasma glucose levels,[5]; [15],significantly reduced
same,"Percentage HbA1c on specific dates, Day 40",[6],6.6%
same,"Percentage HbA1c on specific dates, Day 55",[6],5.9%
same,"Percentage HbA1c on specific dates, Day 68",[6],4.0%
same,HbA1C,[6]; [15],significantly reduced
391871 (antisense [PALM-G]*eG*dT*dA*dC*dA*dT*dG*dG*dA*dA*dG*eT*e[5mC]) [compound 391871],% Inhib,[1]; single i.p. dose 0.16 umol/kg,0%
same,% Inhib,[1]; single i.p. dose 0.4 umol/kg,5%
same,% Inhib,[1]; single i.p. dose 1.0 umol/kg,18%
388628 (antisense eT*eA*dG*d[5mC]*d[5mC]*dG*d[5mC]*d[5mC]*d[5mC]*dA*e[5mC]*eA) [compound 388628],Plasma glucose levels,[5]; [11],436.0 mg/dL
same,Plasma glucose levels,[5]; [12],502.0 mg/dL
same,Plasma glucose levels,[5]; [13],411.2 mg/dL
same,Plasma glucose levels,[5]; [14],668.8 mg/dL
same,"Percentage HbA1c on specific dates, Day 40",[6],8.0%
same,"Percentage HbA1c on specific dates, Day 55",[6],9.1%
same,"Percentage HbA1c on specific dates, Day 68",[6],7.8%
ISIS 392170: SGLT2; 1-10-1 Methyleneoxy BNA Gapmer (antisense lT*dG*dT*dT*d[5mC]*d[5mC]*dA*dG*d[5mC]*d[5mC]*d[5mC]*lA),"SGLT2 mRNA, percent change relative to saline treated animals",[2]; [8],−23 percent change
same,"SGLT2 mRNA, percent change relative to saline treated animals",[2]; [9],−54 percent change
same,"SGLT2 mRNA, percent change relative to saline treated animals",[2]; [10],−69 percent change
